Target: T1, recombinant human glucagon receptor (Homo sapiens, UniProt P47871)
T1 construct: expressed in transfected cells; host or cells: CHO (Chinese hamster ovary) cells
Assay: Inhibition of glucagon-stimulated intracellular cAMP assay
Assay type: cell-based
Settings: CHO cells expressing recombinant human glucagon receptor, stimulated with 300 pM glucagon
Method: Inhibition of Glucagon-Stimulated Intracellular cAMP Assay
Chinese hamster ovary (CHO) cells expressing the recombinant human glucagon receptor were harvested with the aid of non-enzymatic cell dissociation solution (GIBCO 13151-014). The cells were then pelleted and suspended in the stimulation buffer (1×HBSS, 5 mM Hepes, 0.1% BSA, pH7.4 in presence of complete protease inhibitor and phosphodiesterase inhibitor). The adenylate cyclase assay was conducted following the LANCE cAMP Kit (Perkin Elmer, AD0262) instructions. Briefly, cells were preincubated with anti-cAMP antibody in the stimulation buffer with a final concentration of 3% DMSO for 30 minutes and then stimulated with 300 pM glucagon for 45 minutes. The reaction was stopped by incubating with the detection buffer containing Europium chelate of the Eu-SA/Biotin-cAMP tracer for 20 hours. The fluorescence intensity emitted from the assay was measured at 665 nm using PheraStar instruments. […] Standard cAMP concentrations were conducted concurrently for conversion of fluorescence signal to cAMP level. Data was analyzed using GraphPad Prism. IC50 values were calculated using non-linear regression analysis assuming single site competition. […] Some of the compounds of the invention shown in the examples measured less than about 5 μM in this assay; other examples measured less than about 500 nM; others less than about 100 nM.

T1 sequence (P47871 26-477): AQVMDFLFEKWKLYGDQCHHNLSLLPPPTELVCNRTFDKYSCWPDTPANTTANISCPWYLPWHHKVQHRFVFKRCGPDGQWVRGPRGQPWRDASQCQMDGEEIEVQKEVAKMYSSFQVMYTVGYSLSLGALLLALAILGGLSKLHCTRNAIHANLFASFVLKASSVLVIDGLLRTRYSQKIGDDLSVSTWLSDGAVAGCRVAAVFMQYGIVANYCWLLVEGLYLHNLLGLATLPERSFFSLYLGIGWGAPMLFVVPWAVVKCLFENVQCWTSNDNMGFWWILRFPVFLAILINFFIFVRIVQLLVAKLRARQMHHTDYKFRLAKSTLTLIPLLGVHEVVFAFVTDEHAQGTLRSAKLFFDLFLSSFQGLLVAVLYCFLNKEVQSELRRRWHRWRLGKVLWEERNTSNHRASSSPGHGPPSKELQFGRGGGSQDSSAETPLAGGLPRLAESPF

Structure (SMILES)	IC50 [nM]
CC(C)(C)CC[C@H](c1ccc(C(=O)NCc2nn[nH]n2)cc1)N1C(=O)C(C2CCCCC2)=NC12CCC(C(C)(C)C)CC2 (some centres unmarked) [Example 9.99]	290
CC[C@H](c1ccc(C(=O)NCCC(=O)O)cc1)N1C(=O)C(N2CCCCC2)=NC12CCC(C(C)(C)C)CC2 (some centres unmarked) [Example 10.4]	209

Source: US20130012493A1, “NOVEL SPIRO IMIDAZOLONE DERIVATIVES AS GLUCAGON RECEPTOR ANTAGONISTS, COMPOSITIONS, AND METHODS FOR THEIR USE” (priority 2010, published 2013)
